Data from publication PMC5472792, “Bub1 positions Mad1 close to KNL1 MELT repeats to promote checkpoint signalling” (Nature Communications, 2017).

Legend:
Strep-Mad1 597–718 = assay: Strep-Tactin pull-down of FLAG-Bub1/Bub3 with Strep-Mad1; parameters: species or system human; conditions: Strep-Mad1 597–718, 30 min at 30 °C, FLAG western blot, three independent experiments, WT binding set to 1
Method: Figure 3 Bub1 directly interacts with Mad1. (a) Nocodazole arrested HeLa cells stably expressing the indicated Mad1-BirA or BirA-Mad1 fusion protein at near endogenous levels were analyzed 16 h after induction with doxycyclin with or without exposure to 25 μM biotin. Biotinylated proteins were precipitated with streptavidin beads and visualized by western blot using fluorescently labelled streptavidin. (In: input and IP: purified biotinylated proteins) (b) A single SILAC mass spectrometry experiment was performed to determine the ratios of proteins isolated with streptavidin beads from Mad1-BirA versus BirA-Mad1 expressing cell lines respectively. The obtained SILAC ratio for a number of SAC and kinetochore proteins is indicated as well as a number of NPC proteins (c) Experiment as in a,b, but analysed by western blot for the indicated proteins (representative of at least two independent experiments) (d) Strep-Mad1 incubated with FLAG-Bub1 146–553/Bub3 complex (WT) or FLAG-Bub1 146–553ΔCD1/Bub3 complex (ΔCD1) was captured by Strep-Tactin beads and following washing bound proteins were released. Bound Bub1 protein was detected by blotting for FLAG. (e) Quantification of three independent experiments as in d with WT binding set to 1. Mean and s.e.m. shown. […]

Cdc20 = assay: In vitro binding of Mad1 to Cdc20 in the presence of Mps1; conditions: purified Cdc20 1 uM, Mad1 2 uM, Mps1 present, n=5
Text: See also our comment to reviewer 1. We have now directly tested the binding of Mad1 to CD1 peptides with mutated I471D and the MFQ/RKK mutations and the […]
3. In Figure 5, the authors pointed out a direct role of Mad1 that is independent of Bub1 binding. This observation is consistent with the two recently published […]
independent function is through a phosphorylation-dependent direct interaction between Mad1 and Cdc20. The authors should test if Mad1 E710/F712 works together with phosphorylated T716 to bind with Cdc20.
We have extensively tried to see if we can get purified Cdc20 and Mad1 C-term (597-718) to bind in the presence of Mps1. Despite numerous attempts (n=5) we […]
Our Mps1 preparation is active based on its ability to phosphorylate a KNL1 fragment and we see clear binding of BubR1 under these conditions. We have analyzed SAC strength in Cdc20 del26-37 and monitored MCC formation and these assays support the amino acids 26-37 of Cdc20 are required for an efficient SAC and MCC formation as […]
therefore not test if Mad1 E710/F712 is defective in Cdc20 binding. […]
We have measured the affinity of the double phosphorylated peptide for Mad1 (597-718) and included this in the revised manuscript (Figure 4A, C in revised […]
phosphorylated peptide and the double phosphorylated peptide (16 uM versus 32 um). Please note that the DP responses measured in the ITC of Ji et al are very […]

binding to Mad1 (Strep-Mad1 597–718)	binding to Cdc20 (Cdc20)	Molecule
prevented this interaction	–	FLAG-Bub1 146–553 ΔCD1/Bub3: complex lacking CD1, purified from HEK293 cells
–	cannot detect any binding	Mad1 C-term (597-718): recombinant Mad1 C-terminal fragment (protein, left off: His, end not stated, state not stated | Strep, end not stated, kept, recombinant Mad1 C-terminal fragment) SSKEVAELKKQVESAELKNQRLKEVFQTKIQEFRKACYTLTGYQIDITTENQYRLTSLYAEHPGDCLIFKATSPSGSKMQLLETEFSHTVGELIEVHLRRQDSIPAFLSSLTLELFSRQTVA
